For the assay, the system named is pulmonary edema model mice. Nature of the assay: LPS-induced pulmonary edema model mice, lung weight/body weight (Example 10, Experiment 1). The class given is in vivo. Conditions: 350 ng/body weight (g) intravenous, three hours after LPS 100 μg/body weight (g) intravenous. The source says: FIG. 10 is a graph showing the results of Experiment 1 in Example 10 of the present application, namely, the results regarding therapeutic effects on pulmonary edema (the effect of reducing the amount of lung water). In the graph, “Control” indicates normal mice, “LPS” indicates an “LPS (lipopolysaccharide)+control peptide (SEQ ID NO: 26)” administration group, and “LPS/Peptide” indicates an “LPS (lipopolysaccharide)+therapeutic peptide (SEQ ID NO: 25)” administration group. In addition, the numerical value of the vertical axis in the graph indicates the ratio of the weight (g) of lung to the body weight (g) of each mouse (lung weight (g)/body weight (g)).
The therapeutic effects of the peptide of the present invention on model mice with pulmonary edema, which were caused by septicemia, disseminated intravascular coagulation syndrome (DIC) or acute respiratory distress syndrome (ARDS), were confirmed. […]
A comparison experiment was carried out on a normal mouse group (healthy mice), an “LPS (lipopolysaccharide; endotoxin)+control peptide (SEQ ID NO: 26)” administration group, and an “LPS+therapeutic peptide (SEQ ID NO: 25)” administration group (7 mice/each group). […] Thereafter, the lung was removed from the mice in each group, and the weight of each lung was measured. The ratio of the weight (g) of the lung to the body weight (g) (lung weight (g)/body weight (g)) was calculated.

With “AETVFSNMDYENSTEAVFIQDDITKKKKKK [SEQ ID NO: 25]”, the “reduction of the LPS-increased amount of lung weight” value worked out at 72%.

The values are drawn from US9738884B2, “Therapeutic agent for epithelial and endothelial injury” (NIHON UNIVERSITY, priority 2012, dated 2017).
